In US20130189773A1, “PRODUCTION OF HYPOTHIOCYANITE FROM HALOGENATED CELLS” (priority 2012, published 2013):

Experiments:
GSH reductase (GOR) = target: T1, GSH reductase (GOR) (Homo sapiens, UniProt P00390); assay: inhibition of GSH reductase (GOR) by HOCl and repair by SCN^− (GOR-catalyzed reduction of GSSG by NADPH, kinetic traces at 340 nm); type: biochemical
T1 sequence (P00390 45-522 limits assumed): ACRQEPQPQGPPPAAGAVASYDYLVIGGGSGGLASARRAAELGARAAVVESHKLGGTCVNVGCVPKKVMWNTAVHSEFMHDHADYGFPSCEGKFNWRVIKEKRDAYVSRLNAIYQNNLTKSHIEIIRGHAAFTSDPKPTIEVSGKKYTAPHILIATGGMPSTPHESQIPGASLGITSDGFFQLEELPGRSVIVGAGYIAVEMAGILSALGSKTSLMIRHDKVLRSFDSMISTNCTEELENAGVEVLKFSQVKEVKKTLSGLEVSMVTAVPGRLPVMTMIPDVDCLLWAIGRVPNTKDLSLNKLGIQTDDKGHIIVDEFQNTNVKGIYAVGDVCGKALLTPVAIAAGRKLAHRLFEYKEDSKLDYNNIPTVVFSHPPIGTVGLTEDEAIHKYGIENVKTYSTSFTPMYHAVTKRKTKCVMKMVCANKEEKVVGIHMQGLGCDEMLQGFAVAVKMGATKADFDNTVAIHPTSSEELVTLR
Description: FIG. 2 contains kinetic traces at 340 nm depicting the GOR-catalyzed reduction of GSSG by NADPH. Conditions: (Control) [GSSG]o=1 mM, [NADPH]o=0.1 mM, [GOR]=0.025 U/mL, [iP]=0.1 M, pH 7.4 and T=25° C.; (SCN^- treated) GOR incubated with 40 μM HOCl for 20 minutes and then treated with 160 μM SCN^- for another 20 minutes. (HOCl modified) GOR incubated with 40 μM HOCl for 20 minutes and then treated with iP for an additional 20 minutes. […] Glutathione (GSH) is a major non-protein thiol in cells (up to mM concentrations have been reported in some cells). One of the cellular functions of GSH is to serve as an antioxidant, and thus GSH is essential for cell survival, especially during conditions of oxidative stress. Many of the important residues in the active site of GOR, including two cysteines ([…]) and tyrosine ([…]), are susceptible to HOCl attack. Oxidation of these residues results in the inhibition of enzyme activity.

A549 cells [1] = assay: fluorescent probe detection of HOCl-produced intracellular chloramines in A549 cells; type: cell-based, human
Description: In each experiment, A549 cells were incubated with 50 μM HOCl in RPMI culture medium for 20 min at 37° C. and washed with the medium to remove residual HOCl; the cells were then incubated for an additional 20 minutes at 37° C. with 50 μM SCN^− and washed again with the medium. FIG. 3D illustrates the structure of the rhodamine-hydroxymic acid-based probe utilized in FIGS. 3A-C.

A549 cells [2] = assay: flow cytometry of percent live, necrotic and apoptotic A549 cells; type: cell-based, human
Description: A549 cells were untreated (A), treated with 50 μM HOCl (B), treated with 50 μM SCN^− followed by treatment with 50 μM HOCl, (C), or treated with 50 μM HOCl followed by treatment 30 minutes later with 50 μM SCN^− (D).
Using the same protocol that was used to investigate the reaction of intracellular chloramines with SCN^− (FIG. 3), flow cytometry was employed to investigate the percent of live, necrotic, and apoptotic cells (FIG. 4).

SMILES	loss of enzyme activity (GSH reductase (GOR); GOR ~1.3 nM treated with 40 μM HOCl for 20 minutes, loss within 13 minutes, pH 7.4, 25° C.)	fluorescence with probe compound (1) (intracellular chloramines) (A549 cells [1]; A549 cells treated with 50 μM HOCl 20 min 37° C., then probe (FIG. 3B))	cell killing (A549 cells [2]; 50 μM HOCl (FIG. 4B))	apoptotic cells (A549 cells [2]; under the conditions of these experiments (50 μM HOCl with or without 50 μM SCN^−))	enzyme activity recovered (GSH reductase (GOR); HOCl-modified GOR (40 μM HOCl, 20 minutes) subsequently treated with 160 μM SCN^− for 20 minutes)	fluorescence with probe compound (1) (intracellular chloramines) (A549 cells [1]; A549 cells treated with 50 μM HOCl and subsequently with 50 μM SCN^− 20 minutes (FIG. 3C))	fluorescence with probe compound (1) (intracellular chloramines) (A549 cells [1]; A549 cells treated with HOCl in the presence of SCN^− (data not shown))	recovery of HOCl-damaged cells (A549 cells [2]; 50 μM SCN^− added within 30 minutes after 50 μM HOCl (FIG. 4D))	protection of cells from HOCl (A549 cells [2]; 50 μM SCN^− present before 50 μM HOCl was added (FIG. 4C))	recovery of HOCl-damaged cells (A549 cells [2]; interval for addition of SCN^− after HOCl 1 hour or more (data not shown))
OCl [HOCl, hypochlorous acid, reference compound]	~82%	fluoresced	kill roughly half of the cells	essentially no apoptotic cells were observed	–	–	–	–	–	–
N#CS [SCN^−, thiocyanate]	–	–	–	–	~89%	do not fluoresce	did not fluoresce	the cells were resuscitated	efficient scavenger of HOCl	recovery was not observed
